We go through ten molecules from patent US7880059B2, “Production of proanthocyanidins to improve forage quality” (The Samuel Roberts Noble Foundation, priority 2007, dated 2011).

In data set [1] the target is T1, UGT78G1 (Medicago truncatula, UniProt A6XNC6).
T1 sequence (A6XNC6 1-454): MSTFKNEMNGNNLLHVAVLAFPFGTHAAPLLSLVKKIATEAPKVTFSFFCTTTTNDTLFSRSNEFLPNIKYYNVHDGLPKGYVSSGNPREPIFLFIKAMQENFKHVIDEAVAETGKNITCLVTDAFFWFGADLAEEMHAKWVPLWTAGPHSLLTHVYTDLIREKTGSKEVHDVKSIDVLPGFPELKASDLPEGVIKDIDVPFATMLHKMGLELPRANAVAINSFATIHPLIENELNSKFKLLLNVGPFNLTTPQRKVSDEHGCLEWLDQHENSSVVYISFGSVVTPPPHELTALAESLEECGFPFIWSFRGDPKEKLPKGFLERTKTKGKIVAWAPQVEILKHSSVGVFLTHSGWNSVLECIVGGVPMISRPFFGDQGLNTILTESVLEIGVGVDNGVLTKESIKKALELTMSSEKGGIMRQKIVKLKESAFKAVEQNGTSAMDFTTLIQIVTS
In words: Kinetic analysis of UGT78G1 (GT83F) with (iso)flavonoid acceptor substrates, UDP-[14C]-glucose donor. As to conditions: for Kcat/Km ratio: unit not given; for Kcat / Km / Vmax: recombinant UGT78G1, donor UDP-glucose, 30° C., pH 7.0; for Vmax compared with that for most of the other substrates / substrate quality for UGT78G1 in vitro: in words. The procedure:
The PCR product was purified, ligated to pGEMTeasy vector (Promega, Madison, Wis., USA), sequenced, excised and re-cloned between the BamHI and NotI sites of pET28a(+) (Novagen, Madison, Wis., USA) with a hexahistidine tag and a thrombin cleavage site. E. coli BL21 (DE3) cells harboring the expression construct were grown to an OD600 of 0.4-0.5, and expression was initiated by addition of isopropyl 1-thio-β-D-galactopyranoside (IPTG) at a final concentration of 0.2 mM, with further incubation with shaking overnight at 16° C. The enzyme was purified from E. coli lysates by nickel affinity chromatography.
Reactions were stopped with TCA after 15 min incubation at 30° C. Samples were extracted with 250 μl of ethyl acetate, and 200 μl were taken for liquid scintillation counting (Beckman LS6500). Data were analyzed using Hyper32 software for the analysis of enzyme-kinetic data (J. S. Easterby, University of Liverpool, Liverpool, UK; available at www.liv.ac.uk/˜jse/software.html).

For data set [2], the target named is T1, UGT78G1. Description: UGT78G1 enzyme reactions with acceptor substrates, products analyzed by HPLC. Type of data set: biochemical. Set-up: hexahistidine tag with thrombin cleavage site (pET28a(+)) (N); made in house; host or cells: E. coli BL21 (DE3). The text has this: Reactions were stopped with TCA and products analyzed by HPLC as described above.
Data set [3] addresses T1, UGT78G1. Details: hexahistidine tag with thrombin cleavage site (pET28a(+)) (N); made in house; host or cells: E. coli BL21 (DE3). The conditions noted are these: in vitro (Modolo et al, 2007); cited from earlier work.
Substrate in data set [4]: O=c1c(O)c(-c2ccc(O)cc2)oc2cc(O)cc(O)c12
Description: purified protein, by the assay type. The conditions noted are these: other: recombinant UGT78G1, donor UDP-glucose, 30° C., pH 7.0.

Substrate in data set [5]: O=c1c(O)c(-c2ccc(O)c(O)c2)oc2cc(O)cc(O)c12
In words: purified protein, by the assay type. The conditions noted are these: other: recombinant UGT78G1, donor UDP-glucose, 30° C., pH 7.0.

Substrate in data set [6]: O=c1c(-c2ccc(O)cc2)coc2cc(O)cc(O)c12
Description: purified protein, by the assay type. As to conditions: other: recombinant UGT78G1, donor UDP-glucose, 30° C., pH 7.0.

Substrate in data set [7]: O=c1cc(-c2ccc(O)cc2)oc2cc(O)cc(O)c12
In words: purified protein, by the assay type. As to conditions: other: recombinant UGT78G1, donor UDP-glucose, 30° C., pH 7.0.

In the case of `O=c1cc(-c2ccc(O)cc2)oc2cc(O)cc(O)c12` [apigenin], the Kcat/Km ratio in data set [1] was 1,534. In data set [2], the “position of glycosylation by UGT78G1” value is given as 7-O-position.

In the case of `COc1ccc(-c2coc3cc(O)cc(O)c3c2=O)cc1` [biochanin A (4′-methoxy genistein)], in data set [1], the Kcat was determined as 0.012 s⁻¹, the Km was found to be 11.7 µM and the Vmax worked out at 0.3666 µmol/min. Besides, in data set [2], the “position of glycosylation by UGT78G1” value is 7-O-position.

Take `O=c1c(-c2ccc(O)cc2)coc2cc(O)ccc12` [daidzein]: in data set [1], the Michaelis constant (Km) is 1.6 µM.

Turning to `COc1ccc(-c2coc3cc(O)ccc3c2=O)cc1` [formononetin], in data set [1], the Kcat was found to be 0.0029 s⁻¹, the Km was 1.5 µM and the Vmax is 0.0879 µmol/min. In addition, in data set [1] (relative to daidzein), the “preference (Kcat/Km) for formononetin over daidzein” value was “about 2 fold”. Also, the “position of glycosylation by UGT78G1” value in data set [2] was 7-O-position.

Consider `O=c1c(-c2ccc(O)cc2)coc2cc(O)cc(O)c12` [genistein], for which, in data set [1], the Kcat stood at 0.004 s⁻¹, the maximum rate (Vmax) turned out to be 1.2050 µmol/min and the Kcat/Km ratio is 1,098. Moreover, in data set [1] (relative to daidzein), the “Km of genistein relative to Km of daidzein” value was 23 fold. Besides, the “position of glycosylation by UGT78G1” value in data set [2] was 7-O-position.

Turning to `O=c1c(O)c(-c2ccc(O)cc2)oc2cc(O)cc(O)c12` [kaempferol], in data set [1], the “Vmax compared with that for most of the other substrates” value was “much higher”, the Kcat was determined as 0.053 s⁻¹ and the Vmax is 1.5830 µmol/min. In addition, the “position of glycosylation by UGT78G1” value in data set [2] was 3-position.

As to `Oc1ccc(-c2[o+]c3cc(O)cc(O)c3cc2O)cc1` [pelargonidin], in data set [1], the “substrate quality for UGT78G1 in vitro” value is given as “relatively poor substrates”, the Kcat worked out at 0.0057 s⁻¹, the Km turned out to be 71.8 µM and the Vmax worked out at 0.1698 µmol/min. In addition, in data set [3], the “activity of UGT78G1 with substrate” value is on record as “shows activity”.

Turning to `O=c1c(O)c(-c2ccc(O)c(O)c2)oc2cc(O)cc(O)c12` [quercetin], in data set [1], the “Vmax compared with that for most of the other substrates” value is given as “much higher”, the Kcat came out at 0.029 s⁻¹ and the Vmax came to 0.8557 µmol/min. In addition, the “position of glycosylation by UGT78G1” value in data set [2] is 3-position.

With cyanidin, in data set [1], the “substrate quality for UGT78G1 in vitro” value was “relatively poor substrates”, the Kcat turned out to be 0.0068 s⁻¹, the Km is 52 µM and the Vmax is 0.2025 µmol/min. Besides, in data set [3], the “activity of UGT78G1 with substrate” value is reported as “shows activity”.

B1: UGT78G1 (Medicago truncatula) (protein)
chain: T1 sequence (A6XNC6 1-454)
Regarding B1, the Km in data set [4] worked out at 89.8 µM. Further, the Km in data set [5] amounted to 28.7 µM. Besides, in data set [6], the Km came to 36.7 µM. Besides, in data set [7], the Km came out at 1.5 µM, the Vmax amounted to 0.0688 µmol/min, the kcat was 0.0023 s⁻¹ and the kcat/Km came out at 1530 M⁻¹ s⁻¹.
